In patent US20220125877A1, “METHOD FOR TREATING COLORECTAL CANCER” (SUN YAT-SEN UNIVERSITY, priority 2019, published 2022):

Key:
[1] = test system: KRAS (G13D) mutation SW48 cell line; assay: Azacitidine treatment: MATE1 expression and anti-proliferation effect of metformin; assay type: cell-based, human; settings: FIGS. 16E-F
LoVo cells = assay: as above; assay type: cell-based, human; settings: FIGS. 16E-F

Nc1ncn([C@@H]2O[C@H](CO)[C@@H](O)[C@H]2O)c(=O)n1 [azacitidine]
expression of MATE1 [1]: up-regulate the expression of MATE1
effect on the anti-tumor proliferation effect of metformin ([1]; with metformin): inhibiting the anti-tumor proliferation effect of metformin
expression of MATE1 (LoVo cells): up-regulate the expression of MATE1
effect on the anti-tumor proliferation effect of metformin (LoVo cells; with metformin): inhibiting the anti-tumor proliferation effect of metformin
